According to patent publication US6172185A, “Antimicrobial cationic peptide derivatives of bactenecin” (priority 1998, dated 2001):
Where a SMILES comes first, the peptide text is derived from it. Where no end group is shown, it is not given here.

Assays:
Staph. epidermidis = experiment: MIC, modified two-fold microtitre broth dilution; assay type: cell-based, Staphylococcus epidermidis
From the text: (§1) Bacterial strains for antimicrobial activity testing included Escherichia coli UB1005 and its antibiotic supersusceptible derivative DC2 (Richmond et al., Antimicrob. Agents Chemother. 10:215, 1976), Pseudomonas aeruginosa K799 and its antibiotic-supersusceptible derivative Z61 (Angus et al., Antimicrob. Agents Chemother. 21:299, 1982), Salmonella typhimurium 14028s and its defensin-supersusceptible derivative MS7953s (Fields et al., Science, 243:1059, 1989), Staphylococcus aureus ATCC25923 and a clinical isolate Staphylococcus aureus SAP1007. Other Gram-positive bacterial strains include Staphylococcus epidermidis (clinical isolate) and Enterococcus faecalis ATCC29212, Listeria monocytogenes, Corynebacterium xerosis, Streptococcus pneumoniae ATTC49619, Streptococcus pyogenes ATTC19615, Streptococcus mitis.
(§2) The minimal inhibitory concentration (MIC) of peptides was determined by a modified two-fold microtitre broth dilution method modified from that of Steinberg et al (Steinberg, Antimicrob. Agents Chemother. 41:1738, 1997). Using the classical method (Amsterdam, Antibiotics in Laboratory Medicine (Lorian, V., ed) pp. 72-78, 1991), higher concentrations of peptides tend to precipitate in the LB broth, thus the concentrations of peptides in the sequential wells are not accurate. Also the peptides stick to the most readily available (tissue-culture treated polystyrene) 96-well microtitre plates. Therefore the 2× series of dilutions was performed in Eppendoff tubes (polypropylene) before mixing with LB broth. Serial of two fold dilutions of peptides ranging from 640 μg/ml to 1.25 μg/ml were made in 0.2% BSA, 0.01% acetic acid buffer in the Eppendoff tubes. Ten μl of each concentration was added to each corresponding well of a 96-well microtiter plate (polypropylene cluster; Costar Corporation, Cambridge, Mass.). Bacteria were grown overnight and diluted 10-5 into fresh LB broth or Todd Hewitt broth for Streptococcus. LB medium contained 10 g/1l tryptone and 5 g/yeast extract, with no salt. Todd Hewitt contained 500 g/l beef heart infusion, 20 g/l bacto neopeptone, 2 g/l bacto dextrose, 2 g/l sodium chloride, 0.4 g/l disodium phosphate, 2.5 g/l sodium carbonate. One hundred […] containing about 10^4-10^5 CFU/ml of tested bacteria was added to each well. The plate was incubated at 37° C. overnight. The MIC was taken as the concentration at which greater than 90% of growth inhibition was observed.

E.facaelis = experiment: MIC, modified two-fold microtitre broth dilution; assay type: cell-based, Enterococcus faecalis
From the text: as §1, §2

S.typhimurium = experiment: MIC, modified two-fold microtitre broth dilution; assay type: cell-based, Salmonella typhimurium
From the text: as §1, §2

Listeria monocytogenes = experiment: MIC, modified two-fold microtitre broth dilution; assay type: cell-based
From the text: as §1, §2

C. xerosis = experiment: MIC, modified two-fold microtitre broth dilution; assay type: cell-based, Corynebacterium xerosis
From the text: as §1, §2

E.coli UB1005 = experiment: MIC, modified two-fold microtitre broth dilution; assay type: cell-based, Escherichia coli
From the text: as §1, §2

P.aeruginosa = experiment: MIC, modified two-fold microtitre broth dilution; assay type: cell-based, Pseudomonas aeruginosa
From the text: as §1, §2

Strep. pyogenes = experiment: MIC, modified two-fold microtitre broth dilution; assay type: cell-based, Streptococcus pyogenes; conditions: for MIC Strep. pyogeness: Table IID, linear (Group 2): reduced forms of the peptides, Bac (Oxidized) as comparator
From the text: as §1, §2

Strep. pneumoniae = experiment: MIC, modified two-fold microtitre broth dilution; assay type: cell-based, Streptococcus pneumoniae; conditions: for MIC Strep. pneumonia: Table IID, linear (Group 2): reduced forms of the peptides, Bac (Oxidized) as comparator; for MIC S. pneumonia: Table IIIB, non-linear positive-charge modification derivatives; for MIC S. pneumoniae: Table IVB, non-linear hydrophobicity modification derivatives
From the text: as §1, §2

Staph. aureus = experiment: MIC, modified two-fold microtitre broth dilution; assay type: cell-based, Staphylococcus aureus
From the text: as §1, §2

Strep. mitis = experiment: MIC, modified two-fold microtitre broth dilution; assay type: cell-based, Streptococcus mitis; conditions: for MIC Strep. mitis: Table IID, linear (Group 2): reduced forms of the peptides, Bac (Oxidized) as comparator
From the text: as §1, §2

[1] = Table IID, linear (Group 2): reduced forms of the peptides, Bac (Oxidized) as comparator
[2] = Table IIIB, non-linear positive-charge modification derivatives
[3] = Table IIC, linear (Group 2): reduced forms of the peptides, Bac (Oxidized) as comparator
[4] = table IIA, non-linear positive-charge modification derivatives
[5] = Table IVB, non-linear hydrophobicity modification derivatives
[6] = Table IVA, non-linear hydrophobicity modification derivatives

Compound | Minimal Agglutinating Concentration, Oxidized Form (Human Red Blood Cells) [µg/mL] | MIC Staph. epidermidis (Staph. epidermidis; [1]) [µg/mL] | MIC Staph. epidermidis (Staph. epidermidis; [2]) [µg/mL] | MIC E.facaelis (E.facaelis; [1]) [µg/mL] | MIC E.facaelis (E.facaelis; [2]) [µg/mL] | MIC S. typhimurium (S.typhimurium; [3]) [µg/mL] | MIC S. typhimurium (S.typhimurium; [4]) [µg/mL] | MIC Listeria (Listeria monocytogenes; [1]) [µg/mL] | MIC C. xerosis (C. xerosis; [1]) [µg/mL] | MIC E.coli UB1005 (E.coli UB1005; [3]) [µg/mL] | MIC E.coli UB1005 (E.coli UB1005; [4]) [µg/mL] | MIC P. aeruginosa (P.aeruginosa; [3]) [µg/mL] | MIC P. aeruginosa (P.aeruginosa; [4]) [µg/mL] | MIC Strep. pyogeness (Strep. pyogenes) [µg/mL] | MIC Strep. pneumonia (Strep. pneumoniae) [µg/mL] | MIC Staph. aureus (Staph. aureus; [1]) [µg/mL] | MIC Staph. aureus (Staph. aureus; [2]) [µg/mL] | Minimal Agglutinating Concentration, Reduced Form (Human Red Blood Cells) [µg/mL] | MIC Strep. mitis (Strep. mitis) [µg/mL] | further results
CC[C@H](C)[C@@H]1NC(=O)[C@H](C(C)C)NC(=O)[C@H](C(C)C)NC(=O)[C@H]([C@@H](C)CC)NC(=O)[C@@H]2CCCN2C(=O)[C@@H](NC(=O)[C@H](CCCNC(=N)N)NC(=O)[C@@H](N)CCCNC(=N)N)CSSC[C@@H](C(=O)N[C@@H](CCCNC(=N)N)C(=O)O)NC(=O)[C@H](C(C)C)NC(=O)[C@H](CCCNC(=N)N)NC1=O [Bac R, P, RRCPIVVIRVCR] (HELM PEPTIDE1{R.R.C.P.I.V.V.I.R.V.C.R}$PEPTIDE1,PEPTIDE1,3:R3-11:R3$$$V2.0) | > 64 |  |  |  |  |  |  |  |  |  |  |  |  |  |  |  |  |  |  | 
KKCPIVVIRVCK [Bac 3K, P, tested oxidized and reduced] | > 64 | > 64 | > 64 | > 64 | > 64 | > 64 | 32 | 4 | 4 | > 64 | 16 | > 64 | > 64 | 64 | > 64 | > 64 | > 64 | 64 | 0.25 | MIC Listeria (Listeria monocytogenes; [2]): 8 µg/mL; MIC C. xerosis (C. xerosis; [2]): 16 µg/mL; MIC Strep. pyogenes (Strep. pyogenes; [2]): > 64 µg/mL; MIC S. pneumonia (Strep. pneumoniae): > 64 µg/mL; MIC S. mitis (Strep. mitis; [2]): 2 µg/mL
RICRIVVIRCIR-NH2 (cysteine pairing not given here) [Bac 2I-NH2] | 32 |  | 8 |  | > 32 |  | 8 |  |  |  | 4 |  | 16 |  |  |  | 32 |  |  | 
RLARIVVIRVAR-NH2 [Bac 2A-NH2, RLARIVVIRVAR-NH2] | > 64 |  |  |  |  |  |  |  |  |  |  |  |  |  |  |  |  |  |  | 
RLCPRVRIRVCR-NH2 (cysteine pairing not given here) [Bac 2R, P-NH2] | > 32 |  | 16 |  | > 32 |  | 32 |  |  |  | 4 |  | 16 |  |  |  | > 32 |  |  | 
RLCRIVPVIRVCR [Bac P, tested oxidized and reduced] | 64 | 16 |  | 32 |  | 64 |  | 4 | 2 | 16 |  | 32 |  | 32 | > 64 | > 64 |  | 64 | 2 | MIC Staph. epidermidis (Staph. epidermidis; [5]): 64 µg/mL; MIC E.facaelis (E.facaelis; [5]): > 64 µg/mL; MIC S. typhimurium (S.typhimurium; [6]): > 64 µg/mL; MIC Listeria (Listeria monocytogenes; [5]): 2 µg/mL; MIC C. xerosis (C. xerosis; [5]): 8 µg/mL; MIC E.coli UB1005 (E.coli UB1005; [6]): 32 µg/mL; MIC P. aeruginosa (P.aeruginosa; [6]): > 64 µg/mL; MIC Strep. pyogenes (Strep. pyogenes; [5]): 64 µg/mL; MIC S. pneumoniae (Strep. pneumoniae): > 64 µg/mL; MIC Staph. aureus (Staph. aureus; [5]): 64 µg/mL; MIC S. mitis (Strep. mitis; [5]): 4 µg/mL
RLCRIVWVIRVCR [Bac W, tested oxidized and reduced] | 32 | 32 |  | 32 |  | 64 |  | 2 | 1 | > 64 |  | > 64 |  | 16 | 32 | > 64 |  | 4 | 1 | MIC Staph. epidermidis (Staph. epidermidis; [5]): 2 µg/mL; MIC E.facaelis (E.facaelis; [5]): 8 µg/mL; MIC S. typhimurium (S.typhimurium; [6]): 4 µg/mL; MIC Listeria (Listeria monocytogenes; [5]): 0.5 µg/mL; MIC C. xerosis (C. xerosis; [5]): 1 µg/mL; MIC E.coli UB1005 (E.coli UB1005; [6]): 8 µg/mL; MIC P. aeruginosa (P.aeruginosa; [6]): 4 µg/mL; MIC Strep. pyogenes (Strep. pyogenes; [5]): 2 µg/mL; MIC S. pneumoniae (Strep. pneumoniae): 16 µg/mL; MIC Staph. aureus (Staph. aureus; [5]): 4 µg/mL; MIC S. mitis (Strep. mitis; [5]): 1 µg/mL
RLSRIVVIRVCR-NH2 [Bac S-NH2, RLSRIVVIRVCR-NH2] | > 64 |  |  |  |  |  |  |  |  |  |  |  |  |  |  |  |  |  |  | 
RLSRIVVIRVSR-NH2 [Bac 2S-NH2, RLSRIVVIRVSR-NH2] | > 64 |  |  |  |  |  |  |  |  |  |  |  |  |  |  |  |  |  |  | 
RRCPIVVIRVCR-NH2 (cysteine pairing not given here) [Bac R, P-NH2] | > 64 |  | 32 |  | > 64 |  | 16 |  |  |  | 2 |  | 16 |  |  |  | 32 to 64 |  |  | MIC Listeria (Listeria monocytogenes; [2]): 1 µg/mL; MIC C. xerosis (C. xerosis; [2]): 2 µg/mL; MIC Strep. pyogenes (Strep. pyogenes; [2]): 16 µg/mL; MIC S. pneumonia (Strep. pneumoniae): > 64 µg/mL; MIC S. mitis (Strep. mitis; [2]): 2 µg/mL
